± gives the expanded uncertainty stated by the source.
Assay: wn = mass fraction of the nth substance listed
Details: Liquid; for mass density: Vibrating tube method

OCCNCCO [diethanolamine] + O
viscosity [mPa·s]
Details	w1 = 0.0993	w1 = 0.1	w1 = 0.2	w1 = 0.3	w1 = 0.3002	w1 = 0.3997	w1 = 0.4
313.15 K, 30000 kPa, Falling or rolling sphere viscometry	0.9226 ± 0.03	–	1.312 ± 0.043	–	2.022 ± 0.067	3.303 ± 0.11	–
313.15 K, 40000 kPa, Falling or rolling sphere viscometry	0.9253 ± 0.03	–	1.318 ± 0.043	–	2.039 ± 0.067	3.361 ± 0.11	–
313.15 K, 60000 kPa, Falling or rolling sphere viscometry	0.9334 ± 0.031	–	1.335 ± 0.044	–	2.08 ± 0.068	3.438 ± 0.11	–
313.15 K, 80000 kPa, Falling or rolling sphere viscometry	0.9414 ± 0.031	–	1.353 ± 0.044	–	2.119 ± 0.07	3.538 ± 0.12	–
313.15 K, 100000 kPa, Falling or rolling sphere viscometry	0.9509 ± 0.031	–	1.371 ± 0.045	–	2.158 ± 0.071	3.625 ± 0.12	–
333.15 K, 100 kPa, Concentric cylinders viscometry	–	0.64 ± 0.014	0.871 ± 0.019	1.248 ± 0.026	–	–	1.864 ± 0.039
333.15 K, 100 kPa, Falling or rolling sphere viscometry	0.6268 ± 0.021	–	0.8581 ± 0.028	–	1.247 ± 0.041	1.885 ± 0.062	–
333.15 K, 5000 kPa, Falling or rolling sphere viscometry	0.6258 ± 0.021	–	0.8575 ± 0.028	–	1.243 ± 0.041	1.872 ± 0.062	–
333.15 K, 10000 kPa, Falling or rolling sphere viscometry	0.6274 ± 0.021	–	0.8602 ± 0.028	–	1.248 ± 0.041	1.886 ± 0.062	–
333.15 K, 15000 kPa, Falling or rolling sphere viscometry	0.6269 ± 0.021	–	0.8632 ± 0.028	–	1.254 ± 0.041	1.9 ± 0.062	–
333.15 K, 20000 kPa, Falling or rolling sphere viscometry	0.6303 ± 0.021	–	0.8673 ± 0.029	–	1.258 ± 0.041	1.912 ± 0.063	–
333.15 K, 25000 kPa, Falling or rolling sphere viscometry	0.6312 ± 0.021	–	0.8717 ± 0.029	–	1.265 ± 0.042	1.896 ± 0.062	–
333.15 K, 30000 kPa, Falling or rolling sphere viscometry	0.6339 ± 0.021	–	0.8763 ± 0.029	–	1.271 ± 0.042	1.943 ± 0.064	–
333.15 K, 40000 kPa, Falling or rolling sphere viscometry	0.6383 ± 0.021	–	0.8845 ± 0.029	–	1.283 ± 0.042	1.973 ± 0.065	–
333.15 K, 60000 kPa, Falling or rolling sphere viscometry	0.6452 ± 0.021	–	0.8989 ± 0.029	–	1.312 ± 0.043	2.029 ± 0.067	–
333.15 K, 80000 kPa, Falling or rolling sphere viscometry	0.6532 ± 0.021	–	0.9136 ± 0.03	–	1.337 ± 0.044	2.086 ± 0.069	–
333.15 K, 100000 kPa, Falling or rolling sphere viscometry	0.6623 ± 0.022	–	0.9264 ± 0.03	–	1.365 ± 0.045	2.136 ± 0.07	–

mass density [kg/m3]
Details	w1 = 0.0993	w1 = 0.2	w1 = 0.3002	w1 = 0.3997
313.15 K, 30000 kPa	1015.1 ± 0.7	1025.8 ± 0.7	1037.1 ± 0.7	1048.7 ± 0.7
313.15 K, 40000 kPa	1019.1 ± 0.7	1029.7 ± 0.7	1040.7 ± 0.7	1052.3 ± 0.7
313.15 K, 50000 kPa	1022.8 ± 0.7	1033.2 ± 0.7	1044.1 ± 0.7	1055.6 ± 0.7
313.15 K, 60000 kPa	1026.6 ± 0.7	1036.9 ± 0.7	1047.6 ± 0.7	1059 ± 0.7
313.15 K, 70000 kPa	1030.4 ± 0.7	1040.4 ± 0.7	1051 ± 0.7	1062.2 ± 0.7
313.15 K, 80000 kPa	1033.9 ± 0.7	1043.8 ± 0.7	1054.3 ± 0.7	1065.4 ± 0.8
313.15 K, 90000 kPa	1037.3 ± 0.7	1047.1 ± 0.7	1057.5 ± 0.8	1068.5 ± 0.8
313.15 K, 100000 kPa	1040.9 ± 0.7	1050.6 ± 0.7	1060.8 ± 0.8	1071.6 ± 0.8
313.15 K, 110000 kPa	1044.4 ± 0.7	1053.9 ± 0.8	1063.9 ± 0.8	1074.7 ± 0.8
313.15 K, 120000 kPa	1047.7 ± 0.8	1057.1 ± 0.8	1067.1 ± 0.8	1077.7 ± 0.8
313.15 K, 130000 kPa	1051.1 ± 0.8	1060.3 ± 0.8	1070.2 ± 0.8	1080.7 ± 0.9
313.15 K, 140000 kPa	1054.4 ± 0.8	1063.5 ± 0.8	1073.3 ± 0.8	1083.6 ± 0.9
333.15 K, 100 kPa	993.4 ± 0.7	1004.2 ± 0.7	1015.4 ± 0.7	1026.6 ± 0.7
333.15 K, 500 kPa	993.7 ± 0.7	1004.4 ± 0.7	1015.5 ± 0.7	1026.8 ± 0.7
333.15 K, 1000 kPa	993.9 ± 0.7	1004.6 ± 0.7	1015.7 ± 0.7	1027 ± 0.7
333.15 K, 2000 kPa	994.3 ± 0.7	1005 ± 0.7	1016.2 ± 0.7	1027.4 ± 0.7
333.15 K, 5000 kPa	995.5 ± 0.7	1006.2 ± 0.7	1017.3 ± 0.7	1028.5 ± 0.7
333.15 K, 10000 kPa	997.6 ± 0.7	1008.2 ± 0.7	1019.3 ± 0.7	1030.4 ± 0.7
333.15 K, 15000 kPa	999.6 ± 0.7	1010.2 ± 0.7	1021.2 ± 0.7	1032.3 ± 0.7
333.15 K, 20000 kPa	1001.6 ± 0.7	1012.1 ± 0.7	1023.1 ± 0.7	1034.2 ± 0.7
333.15 K, 30000 kPa	1005.7 ± 0.7	1016 ± 0.7	1026.9 ± 0.7	1037.8 ± 0.7
333.15 K, 40000 kPa	1009.7 ± 0.7	1020 ± 0.7	1030.6 ± 0.7	1041.6 ± 0.7
333.15 K, 50000 kPa	1013.4 ± 0.7	1023.6 ± 0.7	1034.1 ± 0.7	1045 ± 0.7
333.15 K, 60000 kPa	1017.2 ± 0.7	1027.1 ± 0.7	1037.7 ± 0.7	1048.4 ± 0.7
333.15 K, 70000 kPa	1020.9 ± 0.7	1030.8 ± 0.7	1041.1 ± 0.7	1051.8 ± 0.7
333.15 K, 80000 kPa	1024.5 ± 0.7	1034.2 ± 0.7	1044.4 ± 0.7	1055 ± 0.7
333.15 K, 90000 kPa	1028 ± 0.7	1037.5 ± 0.7	1047.7 ± 0.7	1058.2 ± 0.8
333.15 K, 100000 kPa	1031.5 ± 0.7	1041 ± 0.7	1051.1 ± 0.8	1061.5 ± 0.8
333.15 K, 110000 kPa	1034.9 ± 0.7	1044.2 ± 0.7	1054.3 ± 0.8	1064.6 ± 0.8
333.15 K, 120000 kPa	1038.4 ± 0.7	1047.7 ± 0.8	1057.5 ± 0.8	1067.8 ± 0.8

— the NIST ThermoML archive (doi:10.1016/j.jct.2017.05.001)
